The text below walks through data of patent publication US9598370B2, “Prolyl hydroxylase inhibitors and methods of use” (Akebia Therapeutics, Inc., priority 2006, dated 2017).

One assay has as its system EPO. Nature of the assay: Mouse serum EPO assay (mouse ischemic hindlimb study). Type of assay: in vivo. Here is the method:
(§1) Mouse Ischemic Hindlimb Study
(§2) All animal work is conducted in accordance with the Guide for the Care and Use of Laboratory Animals (National Academy of Sciences; Copyright© 1996) and the Institutional Animal Care and Use Committee guidelines at Procter and Gamble Pharmaceuticals. We studied 9-10 week old male C57Bl/6 mice from Charles River Laboratory (Portage, Mich.). The mice are orally dosed with vehicle (aqueous carbonate buffer, 50 mM; pH 9.0) or compound 1 in vehicle at 50 mg/kg or 100 mg/kg. The animals are dosed three times: day 1 at 8 am and 5 pm, day 2 at 8 am. One hour after the first dose, unilateral arterial ligation is performed under anesthesia using isoflurane. The femoral artery is ligated proximal to the origin of the popliteal artery. The contralateral limb underwent a sham surgical procedure. Ligation is performed in an alternating fashion between right and left hindlimbs. Two hours after 8 am dosing on day 2, we obtained blood by ventricular stick while the mice are anesthetized with isoflurane. Serum samples for EPO analysis are obtained using gel clot serum separation tubes. Heart, liver, and gastrocnemius muscles are harvested, snap-frozen in liquid nitrogen, and stored in −80° C. until use.
The mouse serum EPO is detected using Mouse Quantikine Erythropoietin ELISA kit from R&D Systems according to manufacturer's instructions.

In a further assay the test system is HIF-1α. Nature of the assay: Mouse tissue HIF Western blot analysis. Type of assay: in vivo. As for the experimental part: as §1, §2
Mouse Tissue HIF Western Blot Analysis
Tissues from mice stored at −80° C. are powdered with mortar and pestle chilled with liquid nitrogen. […]

Assay [1] concerns the target Full-length recombinant human EGLN-3 (His-MBP-TVMVEGLN-3 fusion) (Homo sapiens (Human), UniProt Q9H6Z9). The assay is described as follows: EGLN-3 enzyme activity assay (MALDI-TOF MS). Type of assay: biochemical. Conditions: recombinant human EGLN-3 fusion; HIF-1α peptide 556-574 substrate; read-out: EGLIN3 IC50. Here is the method:
Hydroxylated peptide product is identified from substrate by the gain of 16 Da. Data defined as percent conversion of substrate to product is analyzed in GraphPad Prism 4 to calculate IC50 values.

Full-length recombinant human EGLN-3 (His-MBP-TVMVEGLN-3 fusion), sequence (Q9H6Z9 whole entry, the tested form may be a part): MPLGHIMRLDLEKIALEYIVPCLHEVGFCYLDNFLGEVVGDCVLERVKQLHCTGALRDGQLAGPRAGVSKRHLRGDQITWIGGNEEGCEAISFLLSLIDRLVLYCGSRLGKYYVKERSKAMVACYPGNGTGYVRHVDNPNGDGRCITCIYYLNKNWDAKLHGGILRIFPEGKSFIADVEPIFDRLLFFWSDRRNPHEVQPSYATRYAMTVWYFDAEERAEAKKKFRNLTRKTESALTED

In the case of `O=C(O)CNC(=O)c1ncc(-c2cccc(Cl)c2)cc1O` [{[5-(3-Chlorophenyl)-3-hydroxypyridine-2-carbonyl]amino}-acetic acid], in the assay on EPO (mouse serum after oral dosing), the “erythropoietin level versus vehicle in mouse serum (FIG. 2)” value is “elevated”. In addition, in the assay on HIF-1α, the “stabilization of HIF-1α in mouse liver (immunoblot of nuclear extracts, FIG. 1)” value was “stabilization of HIF-1α”.
A word on the IC50: it is the midpoint of a concentration-inhibition curve. Consider `O=C(O)CNC(=O)c1ncc(-c2ccc(Cl)cc2)cc1O` [{[5-(4-Chlorophenyl)-3-hydroxypyridine-2-carbonyl]amino}-acetic acid], for which the IC50 in assay [1] is 83 nM. Also, in the assay with EPO (in vivo response, mouse serum EPO), the EPO response result is “yes”.
